Assay results taken from US7381743B2, “Macrocycles for the treatment of cancer” (Leibniz-Institut Fuer Pflanzenbiochemie (IPB), priority 2003, dated 2008).
Like-named read-outs stand apart in the source and are kept apart here. Values belong to the compound of their own block, whether it stands above or below them.

What was measured:
Type in all cases: cell-based
MCF7 breast cancer = assay: Proliferation assay (acidic phosphatase), MCF7; conditions: Homo sapiens, read-out: Proliferation assay GI50, IC-50, MCF7 breast cancer
L 929 mouse fibroblasts = assay: Proliferation assay (acidic phosphatase), L 929; conditions: L929, 120 h, read-out: Proliferation assay GI50, IC-50, L 929 mouse fibroblasts
Procedure: (§1) Proliferation assay GI50: acidic phosphatase, incubation period 5 days, IC-50 (μM)

A 549 lung cancer = assay: Proliferation assay (acidic phosphatase), A 549; conditions: Homo sapiens, A549, 120 h, read-out: Proliferation assay GI50, IC-50, A 549 lung cancer
Procedure: as §1

[1] = acidic phosphatase, incubation period 5 days

Compound: C/C1=C/C[C@@H](/C(C)=C/c2csc(C)n2)OC(=O)CSC(C)(C)C(=O)[C@H](C)[C@@H](O)[C@@H](C)CCC1 [MC54690, (7R,8S,9S,13Z,16S)-8-hydroxy-5,5,7,9,13-pentamethyl-16-[(E)-1-methyl-2-(2-methyl-1,3-thiazol-4-yl)vinyl]-1-oxa-4-thiacyclohexadec-13-ene-2,6-dione]
- IC50 (MCF7 breast cancer; MCF7, 120 h): 45 nM
- IC50 (L 929 mouse fibroblasts): 274 nM
- IC50 (A 549 lung cancer): 9 nM

Compound: C/C1=C/C[C@@H](/C(C)=C/c2cccc(C)n2)OC(=O)CSC(C)(C)C(=O)[C@H](C)[C@@H](O)/C(C)=C/CC1 [MC54849, (7R,8R,9E,13Z)-8-Hydroxy-5,5,7,9,13-pentamethyl-16-[(1E)-1-methyl-2-(6-methyl-pyridin-2-yl)-vinyl]-1-oxa-4-thia-cyclohexadec-9,13-dien-2,6-dion]
- IC50 (MCF7 breast cancer; MCF7, 96 h): 531 nM

Compound: C/C1=C/C[C@@H](/C(C)=C/c2csc(C)n2)OC(=O)CS(=O)(=O)C(C)(C)C(=O)[C@H](C)[C@@H](O)[C@@H](C)CCC1 [MC-C5, (7R,8R,9S,13Z)-8-Hydroxy-5,5,7,9,13-pentamethyl-16-[(IE)-1-methyl-2-(2-methyl-thiazol-4-yl)-vinyl]-4,4-dioxo-1-oxa-4-thia-cyclohexadec-13-en-2,6-dion]
- IC50 (MCF7 breast cancer; MCF7, 120 h): > 10000 nM

- IC50 (MCF7 breast cancer; MCF7, 120 h, acidic phosphatase, incubation period 5 days): 3 nM
- IC50 (A 549 lung cancer; [1]): 6 nM
Compound: CC(=O)O[C@H]1C(=O)[C@@]2(C)[C@H]([C@H](OC(=O)c3ccccc3)[C@]3(O)C[C@H](OC(=O)[C@H](O)[C@@H](NC(=O)c4ccccc4)c4ccccc4)C(C)=C1C3(C)C)[C@]1(OC(C)=O)CO[C@@H]1C[C@@H]2O [Taxol, Paclitaxel, reference compound]
- IC50 (L 929 mouse fibroblasts; [1]): 270 nM
